# Reference: patent US11752125B2, “Anti-neuroinflammatory and protective compounds in Achillea fragrantissima” (THE STATE OF ISRAEL MINISTRY OF AGRICULTURE & RURAL …, priority 2013, dated 2023)
# Key:
# Format in all cases: cell-based, rat
# MMP-9 = MMP-9 transcripts in LPS-activated microglial cells (real-time PCR); conditions: LPS 4.5 ng/mL; quantitative real-time PCR
# Protocol: (§1) RNA was extracted by the RNeasy Plus Mini Kit (Qiagen, Hilden, Germany) according to the manufacturer's instructions. Genomic DNA was removed from the RNA samples by using 50 units of RNase-free DNaseI at 37° C. for 1 h. RNA ([…]) was converted to cDNA using the Thermo Scientific Verso cDNA kit (Thermo Fisher Scientific Inc) following the manufacturer's protocol. The cDNA was used for quantitative real-time PCR amplification with TaqMan chemistry (Applied Biosystems) using Rat MMP9, TNFα, IL1β, iNOS, COX2 pre-designed TaqMan Gene Expression Assay from Applied Biosystems (Rn00579162_m1, Rn00562055_m1, Rn00580432_m1, Rn00561646_m1, Rn01483828_m1, respectively). […] All results from three technical replicates were normalized relative to α-Tubulin (Rn01532518.g1) and GAPDH (Rn01775763.g1), respectively, and expressed as relative expression ratios calculated (relative quantity, RQ) using the comparative method and based on the data that were created by the ABI PRISM 7700 Sequence Detection System (using version 1.6 software).
# (§2) Procedure 23. Measurement of IL-1Beta, TNFalpha, iNOS, COX-2 and MMP-9 Transcripts in LPS-Activated Microglial Cells by Quantitative Real-Time PCR Analysis. • 1. […]
# Microglial cells were treated with the indicated concentrations of achillolide A, followed by stimulation with LPS (4.5 ng/mL). […] The levels of MMP-9 transcripts were measured by quantitative real-time PCR. […]
# iNOS = iNOS transcripts in LPS-stimulated microglial cells (real-time PCR); conditions: 20 μg/mL; LPS 4.5 ng/mL, 5 h
# Protocol: as §1, §2
# (§3) Microglial cells were treated with 20 μg/mL of achillolide A, followed by stimulation with LPS (4.5 ng/mL). […] The results are expressed as percentages relative to LPS-stimulated cells. […]
# TNFα = TNFα transcripts in LPS-stimulated microglial cells (real-time PCR); conditions: 20 μg/mL; LPS 4.5 ng/mL, 5 h
# Protocol: as §1, §2, §3
structure (smiles),measurement,setting,value
C=C1CCC2=C(CO)C(=O)O[C@H]2/C=C(\C)[C@H](OC(C)=O)CC1=O [achillolide A],effect on MMP-9 transcripts,MMP-9,down-regulates
same,effect on LPS-induced iNOS transcript levels,iNOS,significantly inhibited
same,effect on LPS-induced TNFα transcript levels,TNFα,significantly inhibited
